Measured values from patent US10131652B2, “Pyrimidinyloxy benzene derivatives as herbicides” (E. I. DU PONT DE NEMOURS AND COMPANY, priority 2014, dated 2018).
Read-outs that look alike come from different tables or passages of the source.

What was measured:
Assay in all cases: Test E pre-/postemergence plant response
Format in all cases: in vivo
[1] = tested on: chickweed (common chickweed, Stellaria media); conditions: scale 0 to 100, read-out: Plant response rating, Chickweed; for pest or weed control at 16 g/ha: 16 g ai/ha; for pest or weed control at 31 g/ha: 31 g ai/ha; for pest or weed control at 62 g/ha: 62 g ai/ha; for pest or weed control at 125 g/ha: 125 g ai/ha
Summary of the method: (§1)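 Visual scores on a 0–100 scale (100 = complete control) were assigned against untreated controls 7–21 days after treatment in a controlled environment. Compounds, formulated with solvent plus surfactant, were applied to pre-emergence silt-loam sowings or to 1- to 4-leaf plants (2–18 cm) in potting medium.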

[2] = tested on: field poppy (Papaver rhoeas); conditions: scale 0 to 100, read-out: Plant response rating, Field Poppy; for pest or weed control at 16 g/ha: 16 g ai/ha; for pest or weed control at 31 g/ha: 31 g ai/ha; for pest or weed control at 62 g/ha: 62 g ai/ha; for pest or weed control at 125 g/ha: 125 g ai/ha
Summary of the method: as §1

[3] = tested on: wild mustard (Sinapis arvensis); conditions: Brassica, scale 0 to 100, read-out: Plant response rating, Mustard, Wild; for pest or weed control at 16 g/ha: 16 g ai/ha; for pest or weed control at 31 g/ha: 31 g ai/ha; for pest or weed control at 62 g/ha: 62 g ai/ha; for pest or weed control at 125 g/ha: 125 g ai/ha
Summary of the method: as §1

[4] = tested on: speedwell (bird's-eye speedwell, Veronica persica); conditions: scale 0 to 100, read-out: Plant response rating, Speedwell; for pest or weed control at 16 g/ha: 16 g ai/ha; for pest or weed control at 62 g/ha: 62 g ai/ha; for pest or weed control at 125 g/ha: 125 g ai/ha
Summary of the method: as §1

[5] = tested on: spring barley (Hordeum vulgare); conditions: for plant injury at 16 g/ha: 16 g ai/ha; for plant injury at 31 g/ha: 31 g ai/ha; for plant injury at 62 g/ha: 62 g ai/ha; for plant injury at 125 g/ha: 125 g ai/ha
Summary of the method: as §1

[6] = tested on: spring wheat (Triticum aestivum); conditions: scale 0 to 100, read-out: Plant response rating, Wheat, Spring; for plant injury at 16 g/ha: 16 g ai/ha; for plant injury at 62 g/ha: 62 g ai/ha; for plant injury at 125 g/ha: 125 g ai/ha
Summary of the method: as §1

[7] = tested on: oilseed rape (Brassica napus); conditions: scale 0 to 100, read-out: Plant response rating, Oilseed Rape; for plant injury at 16 g/ha: 16 g ai/ha; for plant injury at 31 g/ha: 31 g ai/ha; for plant injury at 62 g/ha: 62 g ai/ha; for plant injury at 125 g/ha: 125 g ai/ha
Summary of the method: as §1

[8] = tested on: chamomile (scentless chamomile, Matricaria inodora); conditions: Tripleurospermum inodorum, post-emergence, Postemergence, scale 0 to 100, read-out: Plant response rating, Chamomile
Summary of the method: as §1

[9] = tested on: wild buckwheat (Polygonum convolvulus); conditions: Fallopia convolvulus, scale 0 to 100, read-out: Plant response rating, Buckwheat, Wild; for pest or weed control at 16 g/ha: 16 g ai/ha; for pest or weed control at 31 g/ha: 31 g ai/ha; for pest or weed control at 62 g/ha: 62 g ai/ha; for pest or weed control at 125 g/ha: 125 g ai/ha
Summary of the method: as §1

[10] = tested on: galium (catchweed bedstraw, Galium aparine); conditions: scale 0 to 100, read-out: Plant response rating, Galium; for pest or weed control at 16 g/ha: 16 g ai/ha; for pest or weed control at 31 g/ha: 31 g ai/ha; for pest or weed control at 62 g/ha: 62 g ai/ha; for pest or weed control at 125 g/ha: 125 g ai/ha
Summary of the method: as §1

[11] = tested on: field violet (Viola arvensis); conditions: scale 0 to 100, read-out: Plant response rating, Field Violet; for pest or weed control at 16 g/ha: 16 g ai/ha; for pest or weed control at 31 g/ha: 31 g ai/ha; for pest or weed control at 62 g/ha: 62 g ai/ha; for pest or weed control at 125 g/ha: 125 g ai/ha
Summary of the method: as §1

[12] = post-emergence, 31 g ai/ha, Postemergence
[13] = post-emergence, Postemergence, scale 0 to 100, read-out: Plant response rating, Barley, Spring
[14] = pre-emergence, Preemergence, scale 0 to 100, read-out: Plant response rating, Barley, Spring

Fc1cccc(Oc2ncc(Cl)cn2)c1-c1cc(C(F)(F)F)on1 [Compound 168, 5-chloro-2-[2-[5-(trifluoromethyl)-3-isoxazolyl]-3-fluorophenoxy]pyrimidine]
pest or weed control at 16 g/ha ([1]; post-emergence, Postemergence): 50% | pest or weed control at 31 g/ha ([1]; post-emergence, Postemergence): 45% | pest or weed control at 62 g/ha ([1]; post-emergence, Postemergence): 70% | pest or weed control at 125 g/ha ([1]; post-emergence, Postemergence): 90% | pest or weed control at 16 g/ha ([1]; pre-emergence, Preemergence): 100% | pest or weed control at 31 g/ha ([1]; pre-emergence, Preemergence): 80% | pest or weed control at 62 g/ha ([1]; pre-emergence, Preemergence): 100% | pest or weed control at 125 g/ha ([1]; pre-emergence, Preemergence): 100% | pest or weed control at 16 g/ha ([2]; post-emergence, Postemergence): 55% | pest or weed control at 31 g/ha ([2]; post-emergence, Postemergence): 85% | pest or weed control at 62 g/ha ([2]; post-emergence, Postemergence): 100% | pest or weed control at 125 g/ha ([2]; post-emergence, Postemergence): 100% | pest or weed control at 16 g/ha ([2]; pre-emergence, Preemergence): 80% | pest or weed control at 31 g/ha ([2]; pre-emergence, Preemergence): 100% | pest or weed control at 62 g/ha ([2]; pre-emergence, Preemergence): 100% | pest or weed control at 125 g/ha ([2]; pre-emergence, Preemergence): 100% | pest or weed control at 16 g/ha ([3]; post-emergence, Postemergence): 75% | pest or weed control at 31 g/ha ([3]; post-emergence, Postemergence): 95% | pest or weed control at 62 g/ha ([3]; post-emergence, Postemergence): 95% | pest or weed control at 125 g/ha ([3]; post-emergence, Postemergence): 95% | pest or weed control at 16 g/ha ([3]; pre-emergence, Preemergence): 80% | pest or weed control at 31 g/ha ([3]; pre-emergence, Preemergence): 80% | pest or weed control at 62 g/ha ([3]; pre-emergence, Preemergence): 95% | pest or weed control at 125 g/ha ([3]; pre-emergence, Preemergence): 100% | pest or weed control at 16 g/ha ([4]; post-emergence, Postemergence): 80% | pest or weed control at 31 g/ha [4, 12]: 75% | pest or weed control at 62 g/ha ([4]; post-emergence, Postemergence): 90% | pest or weed control at 125 g/ha ([4]; post-emergence, Postemergence): 100% | pest or weed control at 16 g/ha ([4]; pre-emergence, Preemergence): 100% | pest or weed control at 62 g/ha ([4]; pre-emergence, Preemergence): 100% | pest or weed control at 125 g/ha ([4]; pre-emergence, Preemergence): 100% | plant injury at 16 g/ha [5, 13]: 10% | plant injury at 31 g/ha [5, 13]: 15% | plant injury at 62 g/ha [5, 13]: 15% | plant injury at 125 g/ha ([5]; post-emergence, Postemergence, scale 0 to 100 (0 no effect, 100 complete control), read-out: Plant response rating, Barley, Spring): 25% | plant injury at 16 g/ha [5, 14]: 0% | plant injury at 31 g/ha [5, 14]: 15% | plant injury at 62 g/ha [5, 14]: 30% | plant injury at 125 g/ha [5, 14]: 35% | plant injury at 16 g/ha ([6]; post-emergence, Postemergence): 10% | plant injury at 31 g/ha [6, 12]: 20% | plant injury at 62 g/ha ([6]; post-emergence, Postemergence): 25% | plant injury at 125 g/ha ([6]; post-emergence, Postemergence): 40% | plant injury at 16 g/ha ([6]; pre-emergence, Preemergence): 15% | plant injury at 62 g/ha ([6]; pre-emergence, Preemergence): 20% | plant injury at 125 g/ha ([6]; pre-emergence, Preemergence): 30% | plant injury at 16 g/ha ([7]; post-emergence, Postemergence): 70% | plant injury at 31 g/ha ([7]; post-emergence, Postemergence): 85% | plant injury at 62 g/ha ([7]; post-emergence, Postemergence): 95% | plant injury at 125 g/ha ([7]; post-emergence, Postemergence): 100% | plant injury at 16 g/ha ([7]; pre-emergence, Preemergence): 10% | plant injury at 31 g/ha ([7]; pre-emergence, Preemergence): 40% | plant injury at 62 g/ha ([7]; pre-emergence, Preemergence): 65% | plant injury at 125 g/ha ([7]; pre-emergence, Preemergence): 100% | pest or weed control at 16 g/ha ([8]; 16 g ai/ha): 5% | pest or weed control at 31 g/ha ([8]; 31 g ai/ha): 5% | pest or weed control at 62 g/ha ([8]; 62 g ai/ha): 10% | pest or weed control at 125 g/ha ([8]; 125 g ai/ha): 10% | pest or weed control at 16 g/ha ([9]; post-emergence, Postemergence): 65% | pest or weed control at 31 g/ha ([9]; post-emergence, Postemergence): 95% | pest or weed control at 62 g/ha ([9]; post-emergence, Postemergence): 95% | pest or weed control at 125 g/ha ([9]; post-emergence, Postemergence): 100% | pest or weed control at 16 g/ha ([9]; pre-emergence, Preemergence): 0% | pest or weed control at 31 g/ha ([9]; pre-emergence, Preemergence): 65% | pest or weed control at 62 g/ha ([9]; pre-emergence, Preemergence): 100% | pest or weed control at 125 g/ha ([9]; pre-emergence, Preemergence): 100% | pest or weed control at 16 g/ha ([10]; post-emergence, Postemergence): 75% | pest or weed control at 31 g/ha ([10]; post-emergence, Postemergence): 75% | pest or weed control at 62 g/ha ([10]; post-emergence, Postemergence): 80% | pest or weed control at 125 g/ha ([10]; post-emergence, Postemergence): 85% | pest or weed control at 16 g/ha ([10]; pre-emergence, Preemergence): 60% | pest or weed control at 31 g/ha ([10]; pre-emergence, Preemergence): 60% | pest or weed control at 62 g/ha ([10]; pre-emergence, Preemergence): 100% | pest or weed control at 125 g/ha ([10]; pre-emergence, Preemergence): 100% | pest or weed control at 16 g/ha ([11]; post-emergence, Postemergence): 75% | pest or weed control at 31 g/ha ([11]; post-emergence, Postemergence): 75% | pest or weed control at 62 g/ha ([11]; post-emergence, Postemergence): 90% | pest or weed control at 125 g/ha ([11]; post-emergence, Postemergence): 95% | pest or weed control at 16 g/ha ([11]; pre-emergence, Preemergence): 85% | pest or weed control at 31 g/ha ([11]; pre-emergence, Preemergence): 100% | pest or weed control at 62 g/ha ([11]; pre-emergence, Preemergence): 100% | pest or weed control at 125 g/ha ([11]; pre-emergence, Preemergence): 100%
